Source: ChEMBL document CHEMBL4622854, “Synthetic bioactive olivetol-related amides: The influence of the phenolic group in cannabinoid receptor activity” (Bioorg Med Chem, 2020)
pEC50, pIC50, pKi: −log10 of the molar value. Activity calls are given as the source filed them. No cut-off for these calls is given here.

Legend:
[1] = species: Homo sapiens; assay: Selectivity ratio of Ki for displacement of [3H]-CP55940 from human recombinant CB1 receptor expressed in HEK293 cell membrane to Ki for displacement of [3H]-CP55940 from human recombinant CB2 receptor expressed in HEK293 cell membrane
[2] = biological target: T1, Cannabinoid receptor 2 (Homo sapiens, UniProt P34972); assay: Displacement of [3H]-CP55940 from human recombinant CB2 receptor expressed in HEK cell membrane; type: cell membranes
[3] = biological target: T2, Cannabinoid receptor 1 (Homo sapiens, UniProt P21554); assay: Displacement of [3H]-CP55940 from human recombinant CB1 receptor expressed in HEK cell membrane; type: cell membranes
[4] = biological target: T3, Transient receptor potential cation channel subfamily A member 1 (Rattus norvegicus, UniProt Q6RI86); assay: Activation of rat recombinant TRPA1 expressed in HEK293 cells assessed as calcium influx preincubated for 5 mins by Fluo-4AM dye based fluorescence assay; type: cell-based
[5] = biological target: T1, Cannabinoid receptor 2; assay: Agonist activity at human CB2 receptor expressed in CHO cell membrane assessed as stimulation of [35S]-GTPgammaS binding incubated for 1 hr by liquid scintillation counting assay relative to control
[6] = tested on: Mus musculus; assay: Antinociceptive activity in formalin-induced nociception pain CD-1 mouse model assessed as reduction in pain related behavior in first phase at 4 mg/kg, ip pretreated with compound 10 mins prior to formalin induction measured from 0 to 10 mins by formalin test; type: functional, organism-based
[7] = tested on: Mus musculus; assay: Antinociceptive activity in formalin-induced nociception pain CD-1 mouse model assessed as reduction in pain related behavior in late phase through ip pretreated with compound 10 mins prior to formalin induction measured after 20 to 60 mins by formalin test; type: functional, organism-based
[8] = biological target: T4, Transient receptor potential cation channel subfamily V member 1 (Homo sapiens, UniProt Q8NER1); assay: Antagonist activity at human TRPV1 expressed in HEK293 cells assessed as capsaicin-induced increase of calcium influx preincubated for 5 mins by Fluo-4AM dye based fluorescence assay; type: cell-based
[9] = species: Mus musculus; assay: Antinociceptive activity in formalin-induced nociception pain CD-1 mouse model assessed as reduction in pain related behavior pretreated with compound 10 mins prior to formalin induction co-treated with AM251 measured until 60 mins by formalin test; type: functional, organism-based
[10] = species: Mus musculus; assay: Antinociceptive activity in formalin-induced nociception pain CD-1 mouse model assessed as reduction in pain related behavior pretreated with compound 10 mins prior to formalin induction co-treated with AM630 measured until 60 mins by formalin test; type: functional, organism-based
[11] = biological target: T4, Transient receptor potential cation channel subfamily V member 1; assay: Activation of human TRPV1 expressed in HEK293 cells assessed as calcium influx preincubated for 5 mins by Fluo-4AM dye based fluorescence assay; type: cell-based
[12] = biological target: T1, Cannabinoid receptor 2; assay: Agonist activity at human CB2 receptor expressed in CHO cell membrane assessed as inhibition of [35S]-GTPgammaS binding incubated for 1 hr by liquid scintillation counting assay; type: functional, cell membranes
[13] = biological target: T4, Transient receptor potential cation channel subfamily V member 1; assay: Antagonist activity at human TRPV1 expressed in HEK293 cells assessed as ionomycin-induced increase of calcium influx at 4 uM preincubated for 5 mins by Fluo-4AM dye based fluorescence assay relative to control; type: cell-based
[14] = biological target: Transient receptor potential cation channel subfamily A member 1 (Rattus norvegicus) (UniProt Q6RI86); assay: Antagonist activity at rat recombinant TRPA1 expressed in HEK293 cells assessed as AITC-induced increase of calcium influx at 100 uM preincubated for 5 mins by Fluo-4AM dye based fluorescence assay relative to control; type: cell-based
[15] = biological target: T3, Transient receptor potential cation channel subfamily A member 1; assay: Antagonist activity at rat recombinant TRPA1 expressed in HEK293 cells assessed as AITC-induced increase of calcium influx preincubated for 5 mins by Fluo-4AM dye based fluorescence assay; type: cell-based
[16] = biological target: T2, Cannabinoid receptor 1; assay: Agonist activity at human CB1 receptor expressed in CHO cell membrane assessed as stimulation of [35S]-GTPgammaS binding incubated for 1 hr by liquid scintillation counting assay relative to control
[17] = tested on: HepG2; assay: Antiproliferation activity against human HepG2 cells assessed as reduction in cell viability at 1 uM incubated for 24 to 72 hrs by MTT assay; type: functional, cell-based
[18] = biological target: T2, Cannabinoid receptor 1; assay: Agonist activity at human CB1 receptor expressed in CHO cell membrane assessed as stimulation of [35S]-GTPgammaS binding incubated for 1 hr by liquid scintillation counting assay; type: functional, cell membranes
[19] = biological target: T1, Cannabinoid receptor 2; assay: Antagonist activity at human CB2 receptor expressed in CHO cell membrane assessed as inhibition of CP55940-induced [35S]-GTPgammaS binding incubated for 1 hr by liquid scintillation counting
[20] = biological target: T1, Cannabinoid receptor 2; assay: Agonist activity at human CB2 receptor at 1 nM to 1 uM expressed in CHO cell membrane assessed as stimulation of [35S]-GTPgammaS binding incubated for 1 hr by liquid scintillation counting assay
[21] = biological target: T1, Cannabinoid receptor 2; assay: Agonist activity at human CB2 receptor at 10 uM expressed in CHO cell membrane assessed as stimulation of [35S]-GTPgammaS binding incubated for 1 hr by liquid scintillation counting assay relative to control
[22] = tested on: Mus musculus; assay: Antinociceptive activity in formalin-induced nociception pain CD-1 mouse model assessed as reduction in pain related behavior in late phase at 1 to 3 mg/kg, ip pretreated with compound 10 mins prior to formalin induction measured after 20 to 60 mins by formalin test; type: functional, organism-based
[23] = tested on: Mus musculus; assay: Antinociceptive activity in formalin-induced nociception pain CD-1 mouse model assessed as reduction in pain related behavior in late phase at 6 mg/kg, ip pretreated with compound 10 mins prior to formalin induction measured after 20 to 60 mins by formalin test; type: functional, organism-based

T4 sequence (Q8NER1 whole entry): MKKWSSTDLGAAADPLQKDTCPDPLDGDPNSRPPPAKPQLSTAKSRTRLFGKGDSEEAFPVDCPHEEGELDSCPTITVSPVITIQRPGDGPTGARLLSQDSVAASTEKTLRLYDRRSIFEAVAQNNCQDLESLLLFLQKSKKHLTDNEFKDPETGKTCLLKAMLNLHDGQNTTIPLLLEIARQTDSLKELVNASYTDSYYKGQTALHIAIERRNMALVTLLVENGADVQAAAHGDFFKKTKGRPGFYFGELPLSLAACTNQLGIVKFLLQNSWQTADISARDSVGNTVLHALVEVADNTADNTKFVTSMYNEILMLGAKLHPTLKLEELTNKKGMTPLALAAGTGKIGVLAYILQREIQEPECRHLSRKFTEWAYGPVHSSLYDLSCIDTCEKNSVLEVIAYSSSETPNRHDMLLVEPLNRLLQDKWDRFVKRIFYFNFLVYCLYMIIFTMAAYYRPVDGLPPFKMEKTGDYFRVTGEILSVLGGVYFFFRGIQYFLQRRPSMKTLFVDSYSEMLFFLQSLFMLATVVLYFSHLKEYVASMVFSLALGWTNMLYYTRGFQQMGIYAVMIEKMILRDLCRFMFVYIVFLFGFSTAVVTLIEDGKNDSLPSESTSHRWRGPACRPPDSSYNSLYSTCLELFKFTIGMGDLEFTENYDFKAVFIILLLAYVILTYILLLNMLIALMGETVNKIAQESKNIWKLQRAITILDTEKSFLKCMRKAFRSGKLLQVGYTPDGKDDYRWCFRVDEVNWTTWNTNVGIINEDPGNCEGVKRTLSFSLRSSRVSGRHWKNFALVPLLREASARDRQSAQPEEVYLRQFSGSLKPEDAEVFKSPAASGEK
T1 sequence (P34972 whole entry): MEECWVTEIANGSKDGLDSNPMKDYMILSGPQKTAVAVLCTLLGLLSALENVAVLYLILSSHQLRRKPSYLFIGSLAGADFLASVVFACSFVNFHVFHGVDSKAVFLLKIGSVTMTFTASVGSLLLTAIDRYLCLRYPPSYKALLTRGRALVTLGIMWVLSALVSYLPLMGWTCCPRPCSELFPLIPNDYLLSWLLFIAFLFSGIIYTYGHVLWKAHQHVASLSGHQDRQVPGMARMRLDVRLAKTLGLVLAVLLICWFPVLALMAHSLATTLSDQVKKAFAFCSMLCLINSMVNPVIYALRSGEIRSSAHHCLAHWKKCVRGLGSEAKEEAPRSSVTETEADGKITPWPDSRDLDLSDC
T2 sequence (P21554 whole entry): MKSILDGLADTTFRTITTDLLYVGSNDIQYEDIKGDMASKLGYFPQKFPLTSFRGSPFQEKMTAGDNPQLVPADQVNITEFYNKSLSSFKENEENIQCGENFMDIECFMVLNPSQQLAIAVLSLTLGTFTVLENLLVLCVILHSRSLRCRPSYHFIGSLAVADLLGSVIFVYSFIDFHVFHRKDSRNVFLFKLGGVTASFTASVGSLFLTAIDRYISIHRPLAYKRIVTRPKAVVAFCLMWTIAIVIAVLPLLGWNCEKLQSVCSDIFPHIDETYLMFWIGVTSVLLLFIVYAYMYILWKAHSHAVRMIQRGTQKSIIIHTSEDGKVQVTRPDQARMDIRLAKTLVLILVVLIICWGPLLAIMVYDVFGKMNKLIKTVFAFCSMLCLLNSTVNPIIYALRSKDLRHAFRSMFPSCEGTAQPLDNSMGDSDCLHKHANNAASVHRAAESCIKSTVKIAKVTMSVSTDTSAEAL
T3 sequence (Q6RI86 whole entry): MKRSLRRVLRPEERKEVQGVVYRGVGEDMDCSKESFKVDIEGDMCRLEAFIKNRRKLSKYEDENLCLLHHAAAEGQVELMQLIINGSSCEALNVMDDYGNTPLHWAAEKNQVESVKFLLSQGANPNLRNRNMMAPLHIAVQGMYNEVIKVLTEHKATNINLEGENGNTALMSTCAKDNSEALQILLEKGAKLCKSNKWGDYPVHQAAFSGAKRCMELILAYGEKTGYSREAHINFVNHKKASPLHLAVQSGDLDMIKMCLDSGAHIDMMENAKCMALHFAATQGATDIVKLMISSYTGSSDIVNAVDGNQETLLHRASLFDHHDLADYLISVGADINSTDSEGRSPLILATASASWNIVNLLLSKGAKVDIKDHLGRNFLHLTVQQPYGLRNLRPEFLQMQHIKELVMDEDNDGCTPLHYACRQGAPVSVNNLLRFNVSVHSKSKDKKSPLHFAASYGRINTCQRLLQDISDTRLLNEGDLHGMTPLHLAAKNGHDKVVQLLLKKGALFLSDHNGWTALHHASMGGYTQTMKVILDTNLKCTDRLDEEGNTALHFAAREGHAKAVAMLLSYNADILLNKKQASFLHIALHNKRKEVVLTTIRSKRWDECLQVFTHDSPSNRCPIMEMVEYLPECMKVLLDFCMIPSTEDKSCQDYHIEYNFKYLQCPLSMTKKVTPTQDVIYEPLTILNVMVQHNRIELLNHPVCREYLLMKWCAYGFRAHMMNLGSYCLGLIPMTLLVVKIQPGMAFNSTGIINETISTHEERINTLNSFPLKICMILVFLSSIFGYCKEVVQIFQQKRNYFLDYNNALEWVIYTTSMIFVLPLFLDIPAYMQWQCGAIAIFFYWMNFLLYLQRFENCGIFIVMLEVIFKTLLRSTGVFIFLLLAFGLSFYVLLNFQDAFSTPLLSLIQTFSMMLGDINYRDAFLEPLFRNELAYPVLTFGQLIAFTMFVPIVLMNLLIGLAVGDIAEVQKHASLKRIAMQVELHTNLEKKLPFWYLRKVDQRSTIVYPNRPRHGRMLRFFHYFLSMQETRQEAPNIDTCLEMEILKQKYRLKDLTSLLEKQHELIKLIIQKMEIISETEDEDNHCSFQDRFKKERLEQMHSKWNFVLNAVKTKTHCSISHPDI
Transient receptor potential cation channel subfamily A member 1 (Rattus norvegicus), sequence (Q6RI86 whole entry): as above

| Structure (SMILES) | Selectivity ratio [1] | pKi [2] | pKi [3] | also measured |
| --- | --- | --- | --- | --- |
| CCCCCc1cc(O)cc(OCCCCCCCCCCC(=O)NC2CC2)c1 | 0.4 | – | – | – |
| CCCCCc1cc(OCC)cc(OCCCCCCCCCCC(=O)NC2CC2)c1 | 1.8 | 8.17 | 7.93 | – |
| CCCCCCC(C)(C)c1cc(OC)cc(OCCCCCCCC(=O)NC2CC2)c1 | 0.3 | 8.38 | 8.96 | pEC50 [4]: 4.95; Emax [5]: 28.3%; Activity [6]: Active; Activity [7]: Dose-dependent effect; pIC50 [8]: 6.10; Activity [9]: inactive; Activity [10]: Active; pEC50 [11]: 6.92; pEC50 [12]: 8.94; Efficacy [13]: 29.4%; Efficacy [14]: 17.2%; pIC50 [15]: < 4.00; Emax [16]: 52.5%; Activity [17]: inactive; pEC50 [18]: 7.82 |
| CCCCCc1cc(OC)cc(OCCCCCCCCCCC(=O)NCCO)c1 | 2.6 | 7.48 | 7.06 | – |
| CCCCCc1cc(OC)cc(OCCCCCCCCCCC(=O)Nc2ccccc2)c1 | 2.7 | 6.51 | 6.07 | – |
| CCCCCc1cc(OC)cc(OCCCCCCCC(=O)NCCO)c1 | 1.8 | 7.38 | 7.12 | – |
| CCCCCc1cc(OC)cc(OCCCCCCCCCCC(=O)NC(CO)CO)c1 | 0.6 | 6.22 | 6.46 | – |
| CCCCCCC(C)(C)c1cc(OC)cc(OCCCCCCCC(=O)NCCO)c1 | 0.7 | 6.89 | 7.05 | – |
| C=CCNC(=O)CCCCCCCOc1cc(OC)cc(C(C)(C)CCCCCC)c1 | 0.2 | 7.51 | 8.12 | – |
| CCCCCCc1ccc(OC)cc1OCCCCCCCCCCC(=O)NCC1CC1 | 11.1 | 7.20 | 6.16 | – |
| CCCCCCC(C)(C)c1cc(OC)cc(OCCCCCCCCCCC(=O)NC2CC2)c1 | 10.7 | 7.58 | 6.55 | – |
| CCCCCCc1ccc(OCCCCCCCCCCC(=O)NCC2CC2)cc1OC | 66.6 | 7.31 | 5.49 | Emax [5]: -18.3%; Kb [19]: 30.6 nM; pEC50 [12]: 6.76; Activity [20]: Active |
| CCCCCc1cc(OC)cc(OCCCCCCCCCCC(=O)NCC2CC2)c1 | 28.9 | 7.99 | 6.53 | – |
| CCCCCc1cc(OCCCCCCCCCCC(=O)NC2CC2)cc(OC(C)C)c1 | 7.7 | 8.57 | 7.68 | – |
| CCCCCc1cc(OCCCC)cc(OCCCCCCCCCCC(=O)NC2CC2)c1 | 0.5 | 7.67 | 7.95 | – |
| CCCCCCC(C)(C)c1cc(OC)cc(OCCCCCCCCCCC(=O)NCCO)c1 | 30 | 6.98 | 5.50 | – |
| C=CCNC(=O)CCCCCCCCCCOc1cc(CCCCC)cc(OC)c1 | 3.5 | 8.17 | 7.63 | – |
| CCCCCCC(C)(C)c1cc(OC)cc(OCCCCCCCC(=O)NCC(F)(F)F)c1 | 0.6 | 7.03 | 7.27 | – |
| CCCCCCC(C)(C)c1cc(OC)cc(OCCCCCCCCCCC(=O)NC(CO)CO)c1 | > 7.3 | 5.86 | < 5.00 | – |
| CCCCCc1cc(OC)cc(OCCCCCCCCCCC(=O)NC2CC2)c1 | 2.9 | 8.92 | 8.46 | Emax [21]: -17.8%; Activity [22]: inactive; Activity [23]: Active; Kb [19]: 37.8 nM; Activity [9]: inactive; Activity [10]: inactive; pEC50 [12]: 6.40; Activity [20]: Active; Emax [16]: 62.7%; pEC50 [18]: 8.21 |
| CCCCCc1cccc(OCCCCCCCCCCC(=O)NC2CC2)c1 | 1.7 | 8.46 | 8.23 | Emax [5]: -13%; Kb [19]: 78.2 nM; pEC50 [12]: 8.89; Emax [16]: 29.5%; pEC50 [18]: 7.51 |
| CCCCCCC(C)(C)c1cc(OC)cc(OCCCCCCCCCCC(=O)NCC2CC2)c1 | 9.9 | 6.49 | 5.50 | – |
| CCCCCc1cc(OC)cc(OCCCCCCCCCCC(=O)NCC(F)(F)F)c1 | 3.3 | 7.64 | 7.12 | – |
| C=CCOc1cc(CCCCC)cc(OCCCCCCCCCCC(=O)NC2CC2)c1 | 2.9 | 8.33 | 7.87 | – |
